Results on four compounds are retold here after paper PMC5379747, “Structural basis for a novel type of cytokinin-activating protein” (Scientific Reports, 2017).

The target of assay [1] is T1, Cg1261 (CgLOGII, CgLOGIIF) (Corynebacterium glutamicum, UniProt Q8NRE2, D177A).
T1 construct: gene Cgl1110; full length, pET30a with C-terminal 6xHis, E. coli BL21(DE3), hexamer; residues 1-39 disordered in crystal
In words: TLC detection of adenine released from AMP. Type of assay: biochemical. Conditions: 20 mM AMP, 36 mM Tris-HCl pH 8.0, 23 μM enzyme, 6 h.

Assay [2] addresses T2, Tt1465 (TtLOGII) (Thermus thermophilus, UniProt Q5SHT6).
T2 construct: gene TTHA1644; recombinant, prepared similarly to CgLOGII; hexamer
T2 sequence (Q5SHT6 1-217): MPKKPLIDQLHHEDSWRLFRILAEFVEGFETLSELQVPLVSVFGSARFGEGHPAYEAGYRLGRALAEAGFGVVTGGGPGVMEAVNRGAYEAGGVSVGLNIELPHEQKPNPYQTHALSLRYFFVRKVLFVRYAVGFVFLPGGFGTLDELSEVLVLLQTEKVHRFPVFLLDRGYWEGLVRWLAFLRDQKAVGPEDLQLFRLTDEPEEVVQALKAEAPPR
Kind of assay: TLC detection of adenine released from AMP. Type of assay: biochemical. To be noted: 20 mM AMP, 36 mM Tris-HCl pH 8.0, 23 μM enzyme, 65 °C.

For assay [3], the target named is T3, Cg1261 (CgLOGII, CgLOGIIF) (Corynebacterium glutamicum, UniProt Q8NRE2, F152A).
T3 construct: gene Cgl1110; full length, pET30a with C-terminal 6xHis, E. coli BL21(DE3), hexamer; residues 1-39 disordered in crystal
Kind of assay: TLC detection of adenine released from AMP. The format is biochemical. Conditions: 20 mM AMP, 36 mM Tris-HCl pH 8.0, 23 μM enzyme, 6 h.

Assay [4] addresses T4, Cg1261ΔDNR (CgLOGIIΔDNR) (Corynebacterium glutamicum, UniProt Q8NRE2).
T4 construct: gene Cgl1110; E. coli expressed, hexamer
In words: TLC detection of adenine released from AMP. Type of assay: biochemical. Conditions: 20 mM AMP, 36 mM Tris-HCl pH 8.0, 23 μM enzyme, 30 °C.

Assay [5] has as its target T5, Cg1261 (CgLOGII, CgLOGIIF) (Corynebacterium glutamicum, UniProt Q8NRE2, M185A).
T5 construct: gene Cgl1110; full length, pET30a with C-terminal 6xHis, E. coli BL21(DE3), hexamer; residues 1-39 disordered in crystal
In words: TLC detection of adenine released from AMP. The format is biochemical. To be noted: 20 mM AMP, 36 mM Tris-HCl pH 8.0, 23 μM enzyme, 6 h.

Assay [6] has as its target T6, Cg1261 (CgLOGII, CgLOGIIF) (Corynebacterium glutamicum, UniProt Q8NRE2).
T6 construct: gene Cgl1110; full length, pET30a with C-terminal 6xHis, E. coli BL21(DE3), hexamer; residues 1-39 disordered in crystal
T6 sequence (Q8NRE2 1-256): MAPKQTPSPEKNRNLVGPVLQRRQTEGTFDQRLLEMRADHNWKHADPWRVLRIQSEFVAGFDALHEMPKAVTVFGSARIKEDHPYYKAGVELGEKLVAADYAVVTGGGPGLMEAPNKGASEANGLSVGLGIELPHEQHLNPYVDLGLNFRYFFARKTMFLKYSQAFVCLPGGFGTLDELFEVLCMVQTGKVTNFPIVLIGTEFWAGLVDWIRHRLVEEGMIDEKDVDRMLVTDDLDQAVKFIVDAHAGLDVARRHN
Kind of assay: TLC detection of adenine released from AMP. To be noted: 20 mM AMP, 36 mM Tris-HCl pH 8.0, 23 μM enzyme, 30 °C. Type of assay: biochemical.

The target in assay [7] is T7, Cg1261 (CgLOGII, CgLOGIIF) (Corynebacterium glutamicum, UniProt Q8NRE2, F153A).
T7 construct: gene Cgl1110; full length, pET30a with C-terminal 6xHis, E. coli BL21(DE3), hexamer; residues 1-39 disordered in crystal
Kind of assay: TLC detection of adenine released from AMP. Type of assay: biochemical. To be noted: 20 mM AMP, 36 mM Tris-HCl pH 8.0, 23 μM enzyme, 6 h.

Assay [8] addresses Cg1261 (CgLOGII), full-length, from Corynebacterium glutamicum ATCC 13032 (Corynebacterium glutamicum ATCC 13032). Kind of assay: SAXS; in solution, 4 °C, 0.5 ~4.5 mg/mL; molecular mass by the QR method.
For assay [9] the target is unchanged. Kind of assay: SEC; analytical, Superdex 200 10/300, 150 mM NaCl, 1 mL of 3 mg/ml; masses from a calibration curve of standards.
For assay [10] the target is unchanged. Kind of assay: crystal structure; CgLOGII crystals, space group C222_(1), three molecules in the asymmetric unit; hexamer generated by crystallographic symmetry; 1.95 Å.
For assay [11], the target named is Cg1261 DNR-truncated (Cg1261ΔDNR) (Corynebacterium glutamicum ATCC 13032). In words: SAXS; in solution, 4 °C, 0.5 ~4.5 mg/mL; molecular mass by the QR method.
Assay [12] has the same target. In words: SEC; analytical, Superdex 200 10/300, 150 mM NaCl, 1 mL of 3 mg/ml; masses from a calibration curve of standards.
The target in assay [13] is CgLOG (Cg2612) from Corynebacterium glutamicum (Corynebacterium glutamicum). Described as above.

T7 sequence (Q8NRE2 entry or part of it F153A): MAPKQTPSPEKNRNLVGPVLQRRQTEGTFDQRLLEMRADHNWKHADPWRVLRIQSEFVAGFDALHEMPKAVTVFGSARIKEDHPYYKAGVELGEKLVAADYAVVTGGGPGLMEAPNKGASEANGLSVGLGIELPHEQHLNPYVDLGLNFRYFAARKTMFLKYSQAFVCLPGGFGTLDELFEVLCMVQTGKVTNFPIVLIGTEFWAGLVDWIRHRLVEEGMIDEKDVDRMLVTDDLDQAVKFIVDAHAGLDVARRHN
T1 sequence (Q8NRE2 entry or part of it D177A): as the sequence (Q8NRE2 entry or part of it F153A) above, with A153F, D177A counted along it
T3 sequence (Q8NRE2 entry or part of it F152A): as the sequence (Q8NRE2 entry or part of it F153A) above, with F152A, A153F counted along it
T5 sequence (Q8NRE2 entry or part of it M185A): as the sequence (Q8NRE2 entry or part of it F153A) above, with A153F, M185A counted along it

Take `Nc1ncnc2c1ncn2[C@@H]1O[C@H](COP(=O)(O)O)[C@@H](O)[C@H]1O` [AMP]: the “TLC detection of adenine released from AMP” value in [1] was “Asp177Ala substitution resulted in an almost complete loss of the activity”; in assay [2], “Tt1465 hydrolyzed AMP into an adenine base and ribose 5-phosphate”; in assay [3] it was “such as Phe152, Phe153, and Met185, substituted with alanine still showed the activity”; in assay [4], “Cg1261ΔDNR showed the same level of phosphoribohydrolase activity as Cg1261”; in [5] it was “such as Phe152, Phe153, and Met185, substituted with alanine still showed the activity”; in assay [6], “hydrolyzed AMP into an adenine base and ribose 5-phosphate”. Moreover, the “TLC detection of adenine released from AMP” value in assay [7] was “such as Phe152, Phe153, and Met185, substituted with alanine still showed the activity”.

As a reminder, the stoichiometry N is a count of units in the complex or per binding partner. For the compound “Cg1261 (CgLOGII), full-length, from Corynebacterium glutamicum ATCC 13032 (enzyme)”, the stoichiometry N in assay [8], in assay [9] and in assay [10] was 6 throughout.

Consider “Cg1261 DNR-truncated (Cg1261ΔDNR) (domain or fragment)”, for which the stoichiometry N in [11] and in assay [12] was 6 each time.

As to “CgLOG (Cg2612) from Corynebacterium glutamicum (enzyme)”, the stoichiometry N in assay [13] came to 2.
